From patent US8268988B2, “Process for preparing an A2A-adenosine receptor agonist and its polymorphs” (Gilead Sciences, Inc., priority 2006, dated 2012)

Assays:
[1] = stability of the polymorphs (relative humidity stress, moisture sorption/desorption, thermal analyses); format: physicochemical; settings: for stability relative to the other polymorphs: ambient temperatures; for stability relative to the other polymorphs / stability under relative humidity stress conditions: monohydrate; for stability under relative humidity stress conditions: up to melting point
Procedure: Thermogravimetric (TG) analyses were carried out on a TA Instruments 2050 or 2950 thermogravimetric analyzer. The calibration standards were nickel and Alumel™. Samples were placed in an aluminum sample pan, inserted into the TG furnace, and accurately weighed. The samples were heated in nitrogen at a rate of 10° C./min to either 300 or 350° C. Unless stated otherwise, sample weights were equilibrated at 25° C. in the TGA furnace prior to analysis.
Differential scanning calorimetry (DSC) analyses were carried out on a TA Instruments differential scanning calorimeter 2920. Accurately weighed samples were placed in either crimped pans or hermetically sealed pans that contained a pinhole to allow for pressure release. Each sample was heated under nitrogen at a rate of 10° C./min to either 300 or 350° C. Indium metal was used as the calibration standard. Temperatures were reported at the transition maxima.
Moisture sorption/desorption data were collected on a VTI SGA-100 Vapor Sorption Analyzer. Sorption and desorption data were collected over a range of 5% to 95% relative humidity […] at 10% RH intervals under a nitrogen purge. Sodium chloride (NaCl) and polyvinylpyrrolidone (PVP) were used as the calibration standards. Equilibrium criteria used for analysis were less than 0.0100% weight change in 5 minutes, with a maximum equilibration time of 180 minutes if the weight criterion was not met. The plotted data have not been corrected for the initial moisture content.

A2A-adenosine receptor = A2A-adenosine receptor (Homo sapiens, UniProt P29274); settings: result in words; cited from earlier work
[2] = cited from earlier work

Chain of A2A-adenosine receptor (P29274 whole entry): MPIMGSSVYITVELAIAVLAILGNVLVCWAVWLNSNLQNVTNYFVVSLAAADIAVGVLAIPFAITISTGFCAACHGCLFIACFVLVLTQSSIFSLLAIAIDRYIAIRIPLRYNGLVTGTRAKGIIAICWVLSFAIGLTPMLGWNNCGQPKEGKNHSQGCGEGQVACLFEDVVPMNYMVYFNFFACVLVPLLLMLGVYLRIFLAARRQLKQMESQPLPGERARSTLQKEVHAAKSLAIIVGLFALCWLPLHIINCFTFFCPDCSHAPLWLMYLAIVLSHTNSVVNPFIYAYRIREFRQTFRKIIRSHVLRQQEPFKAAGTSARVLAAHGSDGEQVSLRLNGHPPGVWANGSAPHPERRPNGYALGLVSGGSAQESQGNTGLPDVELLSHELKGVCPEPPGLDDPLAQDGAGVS

Compound: CNC(=O)c1cnn(-c2nc(N)c3ncn([C@@H]4O[C@H](CO)[C@@H](O)[C@H]4O)c3n2)c1 [Polymorph C, (1-{9-[(4S,2R,3R,5R)-3,4-dihydroxy-5-(hydroxymethyl)oxolan-2-yl]-6-aminopurin-2-yl}pyrazol-4-yl)-N-methylcarboxamide]
- behaviour at elevated temperatures ([1]; elevated temperatures): desolvates to an unstable form

Compound: CNC(=O)c1cnn(-c2nc(N)c3ncn([C@@H]4O[C@H](CO)[C@@H](O)[C@H]4O)c3n2)c1 [Amorphous Material, (1-{9-[(4S,2R,3R,5R)-3,4-dihydroxy-5-(hydroxymethyl)oxolan-2-yl]-6-aminopurin-2-yl}pyrazol-4-yl)-N-methylcarboxamide]
- stability in the presence of atmospheric moisture ([1]; atmospheric moisture): unstable in the presence of atmospheric moisture, forming variable hydrates

Compound: CNC(=O)c1cnn(-c2nc(N)c3ncn([C@@H]4O[C@H](CO)[C@@H](O)[C@H]4O)c3n2)c1 [(1-{9-[(4S,2R,3R,5R)-3,4-dihydroxy-5-(hydroxymethyl)oxolan-2-yl]-6-aminopurin-2-yl}pyrazol-4-yl)-N-methylcarboxamide]
- A2A-adenosine receptor agonist selectivity (A2A-adenosine receptor): highly selective A2A-adenosine receptor agonist

Compound: Nc1ncnc2c1ncn2[C@@H]1O[C@H](CO)[C@@H](O)[C@H]1O [Adenosine]
- half life in humans [2]: less than 10 seconds

Compound: CNC(=O)c1cnn(-c2nc(N)c3ncn([C@@H]4O[C@H](CO)[C@@H](O)[C@H]4O)c3n2)c1.O [Form A, (1-{9-[(4S,2R,3R,5R)-3,4-dihydroxy-5-(hydroxymethyl)oxolan-2-yl]-6-aminopurin-2-yl}pyrazol-4-yl)-N-methylcarboxamide monohydrate]
- stability relative to the other polymorphs ([1]; listed as monohydrate): the most stable
- stability relative to the other polymorphs [1]: the most stable of the various polymorphs at ambient temperatures
- stability under relative humidity stress conditions ([1]; listed as monohydrate): stable under relative humidity stress conditions, up to its melting point
- stability under relative humidity stress conditions [1]: stable under relative humidity stress conditions up to its melting point
